{"source": "paper PMC8500670", "about": "“A selective WDR5 degrader inhibits acute myeloid leukemia in patient-derived mouse models” (Science translational medicine, 2021)", "assay_in_all_cases": "biochemical", "key": {"SETD2": {"target": "SETD2 (Homo sapiens, UniProt Q9BYW2)", "sequence (Q9BYW2 whole entry)": "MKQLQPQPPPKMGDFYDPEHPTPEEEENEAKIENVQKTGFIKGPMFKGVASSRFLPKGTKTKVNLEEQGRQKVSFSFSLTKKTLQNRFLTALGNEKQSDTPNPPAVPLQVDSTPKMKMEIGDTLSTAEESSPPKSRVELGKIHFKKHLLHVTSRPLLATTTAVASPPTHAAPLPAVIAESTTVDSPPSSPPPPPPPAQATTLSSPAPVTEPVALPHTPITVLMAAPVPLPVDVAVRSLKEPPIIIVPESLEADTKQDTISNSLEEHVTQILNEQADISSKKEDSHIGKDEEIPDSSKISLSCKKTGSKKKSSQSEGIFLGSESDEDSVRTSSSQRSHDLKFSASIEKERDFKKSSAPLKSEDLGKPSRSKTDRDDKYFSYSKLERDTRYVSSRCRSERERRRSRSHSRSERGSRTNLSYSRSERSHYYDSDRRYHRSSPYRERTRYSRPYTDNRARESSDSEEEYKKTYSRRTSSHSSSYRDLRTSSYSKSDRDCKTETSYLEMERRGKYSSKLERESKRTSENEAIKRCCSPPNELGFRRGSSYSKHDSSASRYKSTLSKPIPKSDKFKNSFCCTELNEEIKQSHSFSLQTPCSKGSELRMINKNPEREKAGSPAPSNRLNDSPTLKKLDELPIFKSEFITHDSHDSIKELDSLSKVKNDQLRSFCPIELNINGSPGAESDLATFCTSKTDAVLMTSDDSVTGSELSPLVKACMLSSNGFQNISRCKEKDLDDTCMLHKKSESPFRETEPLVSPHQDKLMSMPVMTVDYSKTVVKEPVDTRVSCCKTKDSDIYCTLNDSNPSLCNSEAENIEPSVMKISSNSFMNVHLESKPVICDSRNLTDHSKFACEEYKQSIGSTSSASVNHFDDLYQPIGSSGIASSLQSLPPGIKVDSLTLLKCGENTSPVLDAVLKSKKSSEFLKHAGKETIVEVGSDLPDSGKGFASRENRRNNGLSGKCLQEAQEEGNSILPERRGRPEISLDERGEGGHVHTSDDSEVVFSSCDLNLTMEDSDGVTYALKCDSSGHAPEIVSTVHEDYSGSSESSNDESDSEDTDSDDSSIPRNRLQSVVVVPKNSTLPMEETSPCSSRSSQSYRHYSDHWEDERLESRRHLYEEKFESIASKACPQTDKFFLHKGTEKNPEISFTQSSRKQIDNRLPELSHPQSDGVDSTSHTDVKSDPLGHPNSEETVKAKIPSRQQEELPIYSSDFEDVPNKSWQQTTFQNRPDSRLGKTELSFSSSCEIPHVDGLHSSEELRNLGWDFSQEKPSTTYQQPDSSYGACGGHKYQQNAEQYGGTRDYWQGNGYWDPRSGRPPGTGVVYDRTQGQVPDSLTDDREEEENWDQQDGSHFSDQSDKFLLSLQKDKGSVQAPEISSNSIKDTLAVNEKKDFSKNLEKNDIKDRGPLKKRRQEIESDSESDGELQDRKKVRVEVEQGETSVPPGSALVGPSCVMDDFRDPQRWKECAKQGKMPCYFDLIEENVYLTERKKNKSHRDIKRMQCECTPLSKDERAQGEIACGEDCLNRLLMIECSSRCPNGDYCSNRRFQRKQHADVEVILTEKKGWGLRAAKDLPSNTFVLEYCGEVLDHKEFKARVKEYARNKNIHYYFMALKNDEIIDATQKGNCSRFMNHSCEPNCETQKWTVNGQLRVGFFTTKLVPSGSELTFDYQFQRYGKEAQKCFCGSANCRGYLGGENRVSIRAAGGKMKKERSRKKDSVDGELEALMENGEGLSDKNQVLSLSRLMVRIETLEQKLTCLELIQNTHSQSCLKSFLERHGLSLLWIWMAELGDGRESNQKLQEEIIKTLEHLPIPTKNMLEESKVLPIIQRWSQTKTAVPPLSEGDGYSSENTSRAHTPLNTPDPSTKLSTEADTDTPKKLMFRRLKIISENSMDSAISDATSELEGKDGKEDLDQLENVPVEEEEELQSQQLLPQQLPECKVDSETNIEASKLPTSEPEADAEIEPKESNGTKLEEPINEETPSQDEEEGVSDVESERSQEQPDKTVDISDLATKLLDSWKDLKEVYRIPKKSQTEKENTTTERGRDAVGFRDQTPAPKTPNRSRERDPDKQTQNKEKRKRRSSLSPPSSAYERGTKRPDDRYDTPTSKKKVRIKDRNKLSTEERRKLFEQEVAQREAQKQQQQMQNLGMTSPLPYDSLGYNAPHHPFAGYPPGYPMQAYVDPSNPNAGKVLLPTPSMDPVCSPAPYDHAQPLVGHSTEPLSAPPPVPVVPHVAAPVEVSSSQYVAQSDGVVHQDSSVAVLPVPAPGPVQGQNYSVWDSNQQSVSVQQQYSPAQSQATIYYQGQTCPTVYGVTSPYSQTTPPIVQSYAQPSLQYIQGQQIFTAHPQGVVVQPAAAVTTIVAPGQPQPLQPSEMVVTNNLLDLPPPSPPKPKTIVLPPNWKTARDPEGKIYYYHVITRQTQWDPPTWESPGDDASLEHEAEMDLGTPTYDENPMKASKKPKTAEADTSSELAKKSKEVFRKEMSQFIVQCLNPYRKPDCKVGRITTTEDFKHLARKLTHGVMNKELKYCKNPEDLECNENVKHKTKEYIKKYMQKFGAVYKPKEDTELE", "design": "protein methyltransferase selectivity panel, enzyme activity relative to DMSO controls, single concentration in duplicate", "conditions": "Substrate:=Nucleosomes", "method": "(§1) We next assessed selectivity of MS67 against 22 protein methyltransferases (table S2) and a broad panel of common drug targets including 45 kinases (table S3) and 44 G protein–coupled receptors (GPCR), ion channels, and transporters (table S4). […] We subsequently determined that MS67 had moderate binding affinity (Ki = 1.0 ± 0.8 μM) to Sigma 2 receptor (fig. S10)."}, "SET7/9": {"target": "T1, SET7/9 (Homo sapiens, UniProt Q8WTS6)", "T1 construct": "gene SETD7", "T1 sequence (Q8WTS6 1-366)": "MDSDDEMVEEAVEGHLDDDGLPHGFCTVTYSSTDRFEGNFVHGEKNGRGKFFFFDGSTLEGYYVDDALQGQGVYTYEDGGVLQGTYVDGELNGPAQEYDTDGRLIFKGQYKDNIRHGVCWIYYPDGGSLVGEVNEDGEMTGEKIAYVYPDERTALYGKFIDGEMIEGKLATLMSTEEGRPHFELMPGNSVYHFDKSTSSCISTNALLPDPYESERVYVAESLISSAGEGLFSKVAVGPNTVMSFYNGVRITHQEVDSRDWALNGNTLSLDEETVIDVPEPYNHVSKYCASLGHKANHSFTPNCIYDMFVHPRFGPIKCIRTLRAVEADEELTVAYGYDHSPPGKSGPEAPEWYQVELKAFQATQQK", "design": "protein methyltransferase selectivity panel, enzyme activity relative to DMSO controls, single concentration in duplicate", "conditions": "Substrate:=Core Histone", "method": "as §1"}, "SMYD3": {"target": "T2, SMYD3 (Homo sapiens, UniProt Q9H7B4)", "T2 sequence (Q9H7B4 1-428)": "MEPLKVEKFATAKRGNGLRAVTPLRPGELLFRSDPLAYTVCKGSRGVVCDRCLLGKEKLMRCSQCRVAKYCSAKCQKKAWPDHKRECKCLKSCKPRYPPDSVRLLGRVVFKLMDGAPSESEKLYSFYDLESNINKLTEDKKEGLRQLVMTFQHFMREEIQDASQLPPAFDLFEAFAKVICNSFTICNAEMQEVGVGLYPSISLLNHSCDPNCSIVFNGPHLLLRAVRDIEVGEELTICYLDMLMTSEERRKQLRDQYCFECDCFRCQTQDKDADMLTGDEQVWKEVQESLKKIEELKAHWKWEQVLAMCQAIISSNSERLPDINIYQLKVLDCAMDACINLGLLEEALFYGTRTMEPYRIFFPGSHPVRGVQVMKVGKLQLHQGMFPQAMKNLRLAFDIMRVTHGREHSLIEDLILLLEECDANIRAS", "design": "protein methyltransferase selectivity panel, enzyme activity relative to DMSO controls, single concentration in duplicate", "conditions": "Substrate:=MEKK2", "method": "as §1"}, "GSK3β(h)": {"target": "T3, GSK3β(h) (Homo sapiens, UniProt P49841)", "T3 construct": "gene GSK3B", "T3 sequence (P49841 whole entry)": "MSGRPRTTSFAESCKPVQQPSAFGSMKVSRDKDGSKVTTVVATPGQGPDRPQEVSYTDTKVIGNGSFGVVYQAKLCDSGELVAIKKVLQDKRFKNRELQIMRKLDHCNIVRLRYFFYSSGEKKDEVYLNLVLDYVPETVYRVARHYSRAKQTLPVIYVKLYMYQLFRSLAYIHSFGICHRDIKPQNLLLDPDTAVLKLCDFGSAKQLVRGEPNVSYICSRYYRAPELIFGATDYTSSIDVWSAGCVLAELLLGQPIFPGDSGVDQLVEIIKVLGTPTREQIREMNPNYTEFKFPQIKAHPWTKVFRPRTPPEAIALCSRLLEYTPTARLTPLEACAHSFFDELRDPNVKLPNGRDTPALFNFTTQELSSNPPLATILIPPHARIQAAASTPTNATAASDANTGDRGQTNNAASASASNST", "design": "kinase selectivity panel, activity as per cent of control, single concentration in duplicate", "conditions": "read-out: % of control remaining", "method": "as §1"}, "c-RAF(h)": {"target": "T4, c-RAF(h) (Homo sapiens, UniProt P04049)", "T4 construct": "gene RAF1", "design": "kinase selectivity panel, activity as per cent of control, single concentration in duplicate", "conditions": "read-out: % of control remaining", "method": "as §1"}, "EGFR(h)": {"target": "EGFR(h) (Homo sapiens, UniProt P00533)", "design": "kinase selectivity panel, activity as per cent of control, single concentration in duplicate", "conditions": "read-out: % of control remaining", "method": "as §1"}, "JNK1α1(h)": {"target": "T5, JNK1α1(h) (Homo sapiens, UniProt P45983)", "T5 construct": "gene MAPK8; isoform alpha1", "T5 sequence (P45983 whole entry, canonical isoform)": "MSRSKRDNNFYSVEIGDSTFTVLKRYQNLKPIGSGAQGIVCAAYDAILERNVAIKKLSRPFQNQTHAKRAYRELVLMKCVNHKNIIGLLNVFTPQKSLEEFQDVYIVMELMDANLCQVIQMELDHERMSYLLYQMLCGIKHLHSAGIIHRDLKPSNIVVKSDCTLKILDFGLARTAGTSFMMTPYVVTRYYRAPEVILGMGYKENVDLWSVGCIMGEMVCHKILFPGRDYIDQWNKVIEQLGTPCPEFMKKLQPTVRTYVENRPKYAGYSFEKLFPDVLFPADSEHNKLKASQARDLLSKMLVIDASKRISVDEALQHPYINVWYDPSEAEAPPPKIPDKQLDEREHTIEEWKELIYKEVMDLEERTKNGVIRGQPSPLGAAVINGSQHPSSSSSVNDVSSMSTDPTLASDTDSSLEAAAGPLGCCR", "design": "kinase selectivity panel, activity as per cent of control, single concentration in duplicate", "conditions": "read-out: % of control remaining", "method": "as §1"}, "KDR(h)": {"target": "KDR(h) (Homo sapiens, UniProt P35968)", "design": "kinase selectivity panel, activity as per cent of control, single concentration in duplicate", "conditions": "read-out: % of control remaining", "method": "as §1"}, "IR(h)": {"target": "T6, IR(h) (Homo sapiens, UniProt P06213)", "T6 construct": "gene INSR", "design": "kinase selectivity panel, activity as per cent of control, single concentration in duplicate", "conditions": "read-out: % of control remaining", "method": "as §1"}, "IKKα(h)": {"target": "T7, IKKα(h) (Homo sapiens, UniProt O15111)", "T7 construct": "gene CHUK", "design": "kinase selectivity panel, activity as per cent of control, single concentration in duplicate", "conditions": "read-out: % of control remaining", "method": "as §1"}, "Aurora-A(h)": {"target": "T8, Aurora-A(h) (Homo sapiens, UniProt O14965)", "T8 construct": "gene AURKA", "design": "kinase selectivity panel, activity as per cent of control, single concentration in duplicate", "conditions": "read-out: % of control remaining", "method": "as §1"}, "IRAK4(h)": {"target": "IRAK4(h) (Homo sapiens, UniProt Q9NWZ3)", "design": "kinase selectivity panel, activity as per cent of control, single concentration in duplicate", "conditions": "read-out: % of control remaining", "method": "as §1"}, "PDK1(h)": {"target": "T9, PDK1(h) (Homo sapiens, UniProt O15530)", "T9 construct": "gene PDPK1", "T9 sequence (O15530 whole entry)": "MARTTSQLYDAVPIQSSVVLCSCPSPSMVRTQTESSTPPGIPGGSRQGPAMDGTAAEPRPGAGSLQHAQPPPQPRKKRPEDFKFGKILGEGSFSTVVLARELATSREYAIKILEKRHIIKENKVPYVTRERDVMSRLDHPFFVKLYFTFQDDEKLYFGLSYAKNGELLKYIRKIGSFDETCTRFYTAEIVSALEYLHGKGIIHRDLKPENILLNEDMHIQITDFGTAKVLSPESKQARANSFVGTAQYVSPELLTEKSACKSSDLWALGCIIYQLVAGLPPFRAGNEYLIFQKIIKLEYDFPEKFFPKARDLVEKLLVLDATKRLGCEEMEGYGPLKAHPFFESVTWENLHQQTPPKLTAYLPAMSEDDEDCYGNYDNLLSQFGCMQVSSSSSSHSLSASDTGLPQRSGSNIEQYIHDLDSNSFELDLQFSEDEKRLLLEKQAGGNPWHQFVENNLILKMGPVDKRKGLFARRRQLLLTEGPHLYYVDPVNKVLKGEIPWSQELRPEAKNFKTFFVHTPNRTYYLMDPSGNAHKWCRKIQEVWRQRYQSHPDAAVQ", "design": "kinase selectivity panel, activity as per cent of control, single concentration in duplicate", "conditions": "read-out: % of control remaining", "method": "as §1"}, "PKCβII(h)": {"target": "T10, PKCβII(h) (Homo sapiens, UniProt P05771)", "T10 construct": "gene PRKCB; isoform betaII", "design": "kinase selectivity panel, activity as per cent of control, single concentration in duplicate", "conditions": "read-out: % of control remaining", "method": "as §1"}, "EphB4(h)": {"target": "EphB4(h) (Homo sapiens, UniProt P54760)", "sequence (P54760 whole entry)": "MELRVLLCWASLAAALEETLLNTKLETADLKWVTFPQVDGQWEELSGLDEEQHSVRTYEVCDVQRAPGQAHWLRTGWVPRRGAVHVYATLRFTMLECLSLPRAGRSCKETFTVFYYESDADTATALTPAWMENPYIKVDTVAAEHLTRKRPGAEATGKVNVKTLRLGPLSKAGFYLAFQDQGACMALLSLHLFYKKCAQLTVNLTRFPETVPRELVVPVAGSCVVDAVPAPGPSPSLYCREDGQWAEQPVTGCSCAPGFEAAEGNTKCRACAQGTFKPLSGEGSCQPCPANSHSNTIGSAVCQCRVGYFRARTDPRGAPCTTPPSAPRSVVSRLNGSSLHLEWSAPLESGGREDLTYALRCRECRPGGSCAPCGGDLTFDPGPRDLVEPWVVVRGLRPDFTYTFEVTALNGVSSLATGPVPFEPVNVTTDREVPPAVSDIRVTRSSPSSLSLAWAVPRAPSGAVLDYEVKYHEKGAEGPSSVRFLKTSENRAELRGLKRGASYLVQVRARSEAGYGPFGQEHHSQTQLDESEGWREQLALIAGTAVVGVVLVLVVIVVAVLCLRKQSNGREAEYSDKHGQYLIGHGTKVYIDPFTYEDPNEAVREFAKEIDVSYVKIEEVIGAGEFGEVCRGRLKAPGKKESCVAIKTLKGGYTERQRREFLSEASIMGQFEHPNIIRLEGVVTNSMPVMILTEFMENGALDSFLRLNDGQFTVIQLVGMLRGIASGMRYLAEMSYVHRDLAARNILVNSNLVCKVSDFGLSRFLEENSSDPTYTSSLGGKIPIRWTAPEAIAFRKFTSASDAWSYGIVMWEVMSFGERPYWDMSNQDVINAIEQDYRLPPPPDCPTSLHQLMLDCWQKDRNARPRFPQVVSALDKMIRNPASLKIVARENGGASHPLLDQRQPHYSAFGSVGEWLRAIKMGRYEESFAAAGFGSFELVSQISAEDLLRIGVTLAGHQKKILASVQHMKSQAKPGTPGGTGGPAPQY", "design": "kinase selectivity panel, activity as per cent of control, single concentration in duplicate", "conditions": "read-out: % of control remaining", "method": "as §1"}, "Plk1(h)": {"target": "Plk1(h) (Homo sapiens, UniProt P53350)", "design": "kinase selectivity panel, activity as per cent of control, single concentration in duplicate", "conditions": "read-out: % of control remaining", "method": "as §1"}, "Lck(h)": {"target": "Lck(h) (Homo sapiens, UniProt P06239)", "design": "kinase selectivity panel, activity as per cent of control, single concentration in duplicate", "conditions": "read-out: % of control remaining", "method": "as §1"}, "[1]": {"conditions": "read-out: Enzyme % Activity (relative to DMSO controls) / MS67 / 10 / Data 1:"}, "[2]": {"conditions": "read-out: Enzyme % Activity (relative to DMSO controls) / MS67 / 10 / Data 2:"}}, "note": "Read-outs that look alike come from different tables or passages of the source."}
{"smiles": "Cc1ncsc1-c1ccc([C@H](C)NC(=O)[C@@H]2C[C@@H](O)CN2C(=O)[C@@H](NC(=O)CNC(=O)c2ccc(F)c(-c3ccc(N4C[C@@H](C)N(C)[C@@H](C)C4)c(NC(=O)c4c[nH]c(=O)cc4C(F)(F)F)c3)c2)C(C)(C)C)cc1", "note": "[MS67]", "values": [{"measurement": "remaining activity at 10 µM", "setting": "SETD2; [1]", "result": 112, "unit": "%"}, {"measurement": "remaining activity at 10 µM", "setting": "SETD2; [2]", "result": 110, "unit": "%"}, {"measurement": "remaining activity at 10 µM", "setting": "SET7/9; [1]", "result": 99.7, "unit": "%"}, {"measurement": "remaining activity at 10 µM", "setting": "SET7/9; [2]", "result": 92, "unit": "%"}, {"measurement": "remaining activity at 10 µM", "setting": "SMYD3; [1]", "result": 103, "unit": "%"}, {"measurement": "remaining activity at 10 µM", "setting": "SMYD3; [2]", "result": 116, "unit": "%"}, {"measurement": "remaining activity at 1 µM", "setting": "GSK3β(h)", "result": 110, "unit": "%"}, {"measurement": "remaining activity at 1 µM", "setting": "c-RAF(h)", "result": 87, "unit": "%"}, {"measurement": "remaining activity at 1 µM", "setting": "EGFR(h)", "result": 101, "unit": "%"}, {"measurement": "remaining activity at 1 µM", "setting": "JNK1α1(h)", "result": 104, "unit": "%"}, {"measurement": "remaining activity at 1 µM", "setting": "KDR(h)", "result": 110, "unit": "%"}, {"measurement": "remaining activity at 1 µM", "setting": "IR(h)", "result": 87, "unit": "%"}, {"measurement": "remaining activity at 1 µM", "setting": "IKKα(h)", "result": 96, "unit": "%"}, {"measurement": "remaining activity at 1 µM", "setting": "Aurora-A(h)", "result": 108, "unit": "%"}, {"measurement": "remaining activity at 1 µM", "setting": "IRAK4(h)", "result": 109, "unit": "%"}, {"measurement": "remaining activity at 1 µM", "setting": "PDK1(h)", "result": 110, "unit": "%"}, {"measurement": "remaining activity at 1 µM", "setting": "PKCβII(h)", "result": 112, "unit": "%"}, {"measurement": "remaining activity at 1 µM", "setting": "EphB4(h)", "result": 150, "unit": "%"}, {"measurement": "remaining activity at 1 µM", "setting": "Plk1(h)", "result": 87, "unit": "%"}, {"measurement": "remaining activity at 1 µM", "setting": "Lck(h)", "result": 97, "unit": "%"}]}
